In one test the target is MIC2. Briefly: SPR binding of PROTACs to immobilized antibody MIC2. The settings on record: MIC2, 1:1 kinetic binding model. On the procedure:
The binding affinities of hit antibodies MIC1 and MIC2 to a diverse set of VH032-based PROTACs (FIGS. 8A-8B) was determined by surface plasmon resonance (SPR) in a Biacore T200 instrument. The running buffer consist of PBS, 0.05% Tween-20, 2% DMSO and temperature and flow rate were set to 30° C. and 30 μL/min, respectively. The assay setup is depicted exemplarily in FIG. 7A. CM5 sensor chips were coated with antibody (=ligand; 2500 RU) using standard EDC/NHS chemistry. PROTACs (=analytes) were serially diluted (1 μM-1.9 nM) in running buffer, injected to the instrument in consecutive runs and were captured by the antibody resulting in an increase of the corresponding SPR response. After the association step (300 s), running buffer was injected for 600 s and the PROTAC dissociated from the antibody leading to signal decrease. After each run, residual bound PROTAC was removed from the immobilized antibody by injection of 10 mM glycine/HCl, pH 1.5 for 2×30 s regenerating the antibody for the next association and dissociation cycle. To compensate for matrix effects, the measured SPR response signal was subtracted by the analyte response to an inactivated (EDC/NHS, ethanol amine) reference surface omitting the ligand. Furthermore, a DMSO solvent correction was performed and analyte response was subtracted by the running buffer signal. The corrected response was fitted by a 1:1 kinetic binding model yielding the on- (kon) and off-rate (koff) of the PROTAC, as well as its dissociation constant (KD).
(In SPR one partner is held on a chip, and binding of the other changes the refractive index at the surface.)

The subject of a further test is MDAMB468 cells. Briefly: CellTiter-Glo cell viability assay (MIC2-based PAX). To be noted: MDAMB468, complexes at 50% (1:1) loading, three independent experiments. On the procedure: 2000 cells per well were seeded into white-opaque 384-well plates followed by overnight incubation in a humid chamber at 37° C. and 5% CO2. […] The assay was developed after 3 days if not otherwise stated using CellTiter-Glo Luminescent Cell Viability Assay as described in the manufacturer's protocol. In brief, the plates were equilibrated to room temperature for 30 minutes. 100 mL CellTiter-Glo Buffer were added to the CellTiter-Glo Substrate Flask and mixed well. 30 μL of the reagent was transferred to each well. After incubation for 3 minutes at room temperature while shaking at 550 rpm, the plate was incubated for another 10 minutes at room temperature. The luminescence was read on an Envision reader. The evaluation was performed using GraphPad Prism 8 by normalization of cells treated with sample to untreated cells. The data were fitted with 4 point logistic curve to determine the IC50 value.

For a further test, the system named is MV411 cells. The test can be described thus: CellTiter-Glo cell viability assay (VHH-based PAX). More on the design: species or system human. To be noted: MV411, PROTAC alone. As for the experimental part: Several cell viability experiments were performed following the procedure described below: Cells were seeded in different media into white cell culture-treated flat and clear bottom multiwell plates followed by overnight incubation in a humid chamber at 37° C. and 5% CO2. Complexation was performed as described in chapter 7.4.
The solutions were added to the cells based on the antibody concentration using nanodrop dispension using a Tecan D300e Digital Dispenser and all wells were normalized to the same volume using 0.3% TW20 in PBS pH 7.4 and DMSO to a final solvent concentration of 0.05% DMSO and 0.003% TW20. Incubation was performed at 37° C. at 5% or 10% CO2 dependent on the medium. The assay was developed after 3 days if not otherwise stated using CellTiter-Glo Luminescent Cell Viability Assay as described in the manufacturer's protocol. In brief, the plates were equilibrated to room temperature for 30 minutes. 100 mL CellTiter-Glo Buffer were added to the CellTiter-Glo Substrate Flask and mixed well. 30 μL of the reagent was transferred to each well. After incubation for 3 minutes at room temperature while shaking at 550 rpm, the plate was incubated for another 10 minutes at room temperature. The luminescence was read on an Envision reader from Perkin Elmer. […]
(In general: Cellular ATP, detected with luciferase, serves as a proxy for viable cell number.)

The target in the next test is BRD4 (Homo sapiens, UniProt O60885). The test can be described thus: BRD4 degradation, immunofluorescence imaging in MDA-MB-468 cells. Format: cell-based. To be noted: 4 nM, 43 h, relative to untreated cells. On the set-up: endogenous in cells; host or cells: MDA-MB-468. On the procedure:
BRD4 was chosen as the model protein for the disclosed invention due to the strong pharmacological effect (cell death) that is induced upon degradation of BRD4. For the evaluation of targeted BRD4 degradation, MDA-MB-468 cells were seeded into a black 96 well clear bottom plates (10,000 cells/well) followed by incubation (37° C., 5% CO2) in a humid chamber overnight. Test compounds were added using a D300e digital dispenser (Tecan) and incubated for 43 h (37° C., 5% CO2, humid chamber). Cells were washed 3× with PBS, fixed in 2% (v/V) formaldehyde for 15 min at rt and washed again (3×). To permeabilize cells, 0.2% (v/V) Triton-X-100 was added for 10 min at rt and removed by washing with PBS (3×). Wells were blocked with 3% (w/v) BSA in PBS for 60 min at rt, washed trice, and cells were incubated with 2.3 μg/mL rabbit anti-BRD4 antibody (Abcam) diluted in 3% BSA/PBS for […] at 4° C. overnight. […] After a final washing step, cells were preserved in 0.1% (w/V) sodium azide and transferred to a Cytation 5 cell imaging reader (Biotek). […] For quantitative analysis of nuclear BRD4 levels, only the green fluorescence (AF488) co-localized with DAPI staining was counted. Green fluorescence was normalized to cell number and expressed relative to untreated cells.

Broadly, the Kd is the equilibrium constant for the complex coming apart. In the case of `Cc1ncsc1-c1ccc([C@H](C)NC(=O)[C@@H]2C[C@@H](O)CN2C(=O)[C@@H](NC(=O)COCCCOCCNC(=O)C[C@@H]2N=C(c3ccc(Cl)cc3)c3c(sc(C)c3C)-n3c(C)nnc32)C(C)(C)C)cc1` [ARV771], the Kd at MIC2 is over 1000 nM.
Usually IC50 stands for the concentration needed to halve the response being measured. A lower IC50 goes with greater potency in that assay. Take `Cc1ncsc1-c1ccc(CNC(=O)[C@@H]2C[C@@H](O)CN2C(=O)[C@@H](NC(=O)CCCCCCCCCCNC(=O)c2cc3c(cc2CS(C)(=O)=O)-c2cn(C)c(=O)c4[nH]cc(c24)CN3c2ncc(F)cc2F)C(C)(C)C)cc1` [GNE987]: at MIC2, the affinity, expressed as Kd, was 1.9 nM; the koff result is given as “NM/4.10E−05 1/s”; the kon result is listed as “NM/2.20E+04 1/Ms”. This molecule had an IC50 with MDAMB468 cells of 0.79 nM. Further, in the test on MV411 cells, the IC50 is under 0.045 nM. Further, the “remaining BRD4” value at BRD4 is given as 39.0%.

The values are drawn from patent US20250312468A1, “ANTI-PROTAC ANTIBODIES AND COMPLEXES” (Merck Patent GmbH, priority 2021, published 2025).
